Results from patent publication US20260021119A1, “TETRACYCLINE DERIVATIVES” (ICM (INSTITUT DU CERVEAU ET DE LA MOELLE ÉPINIÈRE), priority 2022, published 2026).
“Also recorded” adds a separate entry of the source.

Key:
[1] = Brain penetration after single subcutaneous injection; type: in vivo; details: mouse, brain and serum, sc; 40 mg/kg single subcutaneous injection, Swiss mice, 30 min to 24 h, n=3; read-out: brain-to-plasma ratio calculated from the area under the concentration time curves
Protocol: Adult Swiss mice received a single subcutaneous injection of 40 mg/kg of the compound of formula (Ia) according to the present invention, the compound of formula (C), or doxycycline diluted in saline with 5% DMSO and 5% Tween 80 (doxycycline was used as a reference tetracycline). The mice were sacrificed 30 min, 1 h, 8 h, and 24 h after treatment. After sacrifice, brain and serum samples were collected and processed at each time point for tetracycline dosage, using an UHPLC system coupled with a triple quadrupole mass spectrometer LCMS-8030 (Shimadzu Corporation, Kyoto, Japan).

[2] = test system: microglia cells (TNF α release under LPS); experiment: Anti-inflammatory effect in microglia, TNF α release inhibition under LPS exposure; type: cell-based; details: for Anti inflammatory effects (IC 50 in μM): TNF α release inhibition under LPS exposure, determined graphically
Protocol: Microglia is in charge of the protection of the neurons. However, under stress conditions, microglia cells are responsible of inflammatory phenomena, leading eventually to the death of the neurons. The anti-inflammatory effects of 5 μM and 20 μM of compound of formula (B) presented in Example 1, of 5 μM and 20 μM of compound of formula (Ia) according to the present invention and of 50 μM of doxycycline (DOX) were evaluated, compared to the effect of 2.5 μM of dexamethasone (DEX). Microglia is in charge of the protection of the neurons. However, under stress conditions, microglia cells are responsible of inflammatory phenomena, leading eventually to the death of the neurons. The anti-inflammatory effects of 10 μM and 20 μM of compound of formula (C) (“10 μM (C)” and “20 μM (C)”) and of 10 μM and 20 μM of compound of formula (Ia) according to the present invention (“10 μM (Ia)” and “20 μM (Ia)”) were evaluated, compared to the effect of 2.5 μM of dexamethasone (“DEX”). The properties of tetracycline derivatives, including the compound of formula (Ia) according to the present invention, were compared regarding the neuroprotection, anti-inflammatory effects, anti-aggregant activity, and antibiotic activity. The properties were evaluated as described herein above. EC50s, IC50s determined graphically, *Rescue of dopamine neurons from spontaneous oxidative stress; ** TNF α release inhibition under LPS exposure, ^#Weak antibiotic activity on only 1 of the 3 bacterial strains (i.e. S aureus). ##Strong antibiotic activity on all 3 bacterial strains. ^###Significant antibiotic activity on two bacterial strains.

[3] = test system: Gram+ and Gram- bacteria (S. aureus, E. coli, E. faecalis, P. aeruginosa); experiment: Antibiotic activity, summary over the bacterial strains (Examples 3 and 7); type: cell-based; parameters: activity against Gram+ and Gram− bacteria: dose or concentration left out as unconfirmed; key to Antibiotic activity: low: Weak antibiotic activity on only 1 of the 3 bacterial strains (i.e. S aureus); high: Strong antibiotic activity on all 3 bacterial strains; Significant antibiotic activity on two bacterial strains
Protocol: Bacterial strains used in this study were: S. aureus (ATCC25923), E. coli (ATCC25922), E. faecalis (ATCC29212) and P. aeruginosa (PA01). Strains were maintained at −80° C. in 15% (v/v) glycerol for cryoprotection. Bacteria were routinely grown in Mueller-Hinton (MH) broth at 37° C.
The susceptibility of bacterial strains to antibiotics and compounds was determined in microplates using the standard broth dilution method in accordance with the recommendations of the Comité de 1′Antibiogramme de la Société Française de Microbiologie (CA-SFM). (Members of the SFM Antibiogram Committee, R. Int. J. Antimicrob. Agents 2003, 21, 364). Briefly, the Minimal Inhibitory Concentrations (MICs) were determined with an inoculum of 10^5 CFU in 200 μL of MH broth containing two-fold serial dilutions of each drug. […] To determine all MICs, the measurements were independently repeated in triplicate.
The compound of formula (Ia) according to the invention was tested against clinical isolates Gram-bacteria (P. aeruginosa, E. coli) and Gram+ bacteria (S. aureus, E. faecalis). Minimum inhibitory concentrations (MIC) were tentatively determined and compared to known antibiotic tetracyclines (doxycycline, demeclocycline, chlortetracycline) and to the compound of formula (B) disclosed in Example 1 of the present application. The test was reproduced twice and the average MIC were calculated.
(§1) The properties of tetracycline derivatives, including the compound of formula (Ia) according to the present invention, were compared regarding the neuroprotection, anti-inflammatory effects, anti-aggregant activity, and antibiotic activity. The properties were evaluated as described herein above.
(§2) EC50s, IC50s determined graphically, *Rescue of dopamine neurons from spontaneous oxidative stress; ** TNF α release inhibition under LPS exposure, ^#Weak antibiotic activity on only 1 of the 3 bacterial strains (i.e. S aureus). ##Strong antibiotic activity on all 3 bacterial strains. ^###Significant antibiotic activity on two bacterial strains.

[4] = test system: dopaminergic neurons (TH+ neurons); experiment: Neuroprotection: rescue of dopamine neurons from spontaneous oxidative stress in primary cultures; type: cell-based; details: for EC50: Neuron, rescue of dopamine neurons from spontaneous oxidative stress, determined graphically, read-out: Neuroprotection (EC 50 μM)
Protocol: In primary cultures of dopaminergic neurons, TH+ neurons suffer from oxidative stress, leading to the death of the neurons after a few days. When cultured in the presence of a positive reference (apotransferrin), the dopaminergic neurons survive. The neuroprotective effects of 10 μM of doxycycline (DOX) and of 3 μM or 5 μM of the compound of formula (Ia) according to the present invention were evaluated, compared to the effect of 100 μg/mL of apotransferrin (APO).
as §1, §2

[5] = test system: formalin-induced pain behavior; experiment: Formalin-induced nociceptive pain test; type: in vivo, C57/BL6 mice; details: for pain-related responses in the formalin test (overall): mice; for sex dependence of analgesic response: single injection, (C) 10 mg/kg, (Ia) 40 mg/kg, male vs female mice, phase 2
Protocol: The analgesic effects of the compound of formula (C) described in Example 6 (administered at doses of 5 mg/kg of animal, 10 mg/kg of animal and 20 mg/kg of animal) and the compound of formula (Ia) according to the present invention (administered at doses of 10 mg/kg of animal, 20 mg/kg of animal, and 40 mg/kg of animal) were tested using the formalin-induced nociceptive pain model (as disclosed in the publication Lopes DM, Cater HL, Thakur M et al. “A refinement to the formalin test in mice [version 2; peer review: 2 approved]” F1000Research 2019, 8:891).
To test the anti-pain effects of compounds (Ia) and (C) according to the present invention, a formalin pain test was performed, which consists in subcutaneously injecting 50 μl of a 5.0% formalin solution into the right hind paw of adult C57/BL6 mice (Taylor and Basbaum, J Pain, 2000) before scoring pain behavior. The intensity of pain was estimated by recording the cumulative time (sec) during which animals develop a licking/bitting behavior in response to formalin injection. This response is divided into a transient early (Phase I) phase followed by a more prolonged late (Phase II) phase. Pain scoring is performed by experimenters blinded to test treatments using a video recording of formalin-induced pain behavior.

[6] = 10 μM and 20 μM, compared to dexamethasone 2.5 μM

| Kp [1] | Anti inflammatory effects (IC 50 in μM) [2] | EC50 [4] [µM] | Structure (SMILES) | anti-inflammatory effect (LPS) [2, 6] | Antibiotic activity ([3]; summary over bacterial strains) | reduction of nociceptive pain, phase 1 and 2 ([5]; 5 mg/kg, sub-chronic regimen (6 subcutaneous injections), male adult C57/BL6 mice, not different from morphine 10 mg/kg) | pain-related responses in the formalin test (overall) [5] | anti-nociceptive effects, phases 1 and 2 ([5]; single injection 10 mg/kg prior to formalin, not different from morphine 10 mg/kg) | sex dependence of analgesic response [5] | anti-inflammatory effect (LPS) ([2]; 5 μM and 20 μM, superior to doxycycline 50 μM and compound of formula (B)) | activity against Gram+ and Gram− bacteria [3] | neuroprotective effect ([4]; 3 μM and 5 μM, compared to apotransferrin 100 μg/mL) | analgesic effects, phases 1 and 2 ([5]; between 20 and 40 mg/kg, sub-chronic regimen, subcutaneous, male adult C57/BL6 mice) | anti-nociceptive effects, both phases ([5]; single injection 40 mg/kg prior to formalin) |
| --- | --- | --- | --- | --- | --- | --- | --- | --- | --- | --- | --- | --- | --- | --- |
| 0.27 ± 0.13 | no | 0.81 | NC(=O)C1=C(O)CC2CC3C(=C(O)C2C1=O)C(=O)c1c(O)ccc(Cl)c1[C@H]3O (some centres unmarked) [Compound of formula (C)] | unable to counteract the inflammatory process | low^# | highly effective | reduce pain-related responses; also recorded: showed anti-pain effects | robust anti-nociceptive effects | male mice exhibited a better analgesic response | – | – | – | – | – |
| 0.21 ± 0.05 | yes | 1.58 | C[C@H]1c2cccc(O)c2C(=O)C2=C(O)C3C(=O)C(C(N)=O)=C(O)C[C@@H]3[C@@H](O)[C@@H]21 (stereo partly drawn) [Compound of formula (Ia), (4aS,5R,5aR,6R)-3,5,10,12-tetrahydroxy-6-methyl-1,11-dioxo-1,4,4a,5,5a,6,11,12a-octahydrotetracene-2-carboxamide] | counteracts inflammatory process | – | – | reduce pain-related responses; also recorded: showed anti-pain effects | – | females responded more effectively | counteracts inflammatory process | did not show any activity | highly protective | exerted analgesic effects | exerted anti-nociceptive effects |
